Data from US11331367B1, “Compounds and methods for inhibiting protozoan parasites” (University of South Florida, priority 2018, dated 2022).
Non-standard residues stand in square brackets, D forms with d. Residues, ends and D or L forms follow the SMILES beside them. *: point of attachment. NMeI = CC[C@H](C)[C@H](NC)C(=O)O; dNMeF = CN[C@H](Cc1ccccc1)C(=O)O; X1 = C(=C/c1c[nH]c2ccccc12)/N*; NMeV = CN[C@H](C(=O)O)C(C)C; NMeA = CN[C@@H](C)C(=O)O

System: Plasmodium falciparum liver-stage parasites
Test: microbe, parasite or virus in culture
Assay type: cell-based
Conditions: for inhibition of P. falciparum liver-stage development (in words): in vitro liver model, drug treatment at 10 μM
Description: Bioactivity of friomaramide was evaluated for inhibition of Plasmodium falciparum liver-stage parasites and primary human hepatocyte (PHH) toxicity using an in vitro liver model. In brief, cryopreserved PHHs were seeded at 1.8×10^4 cells per well in a 384-well microplate. Freshly isolated P. falciparum sporozoites were inoculated at 2.0×10^4 per well with subsequent drug treatment at 10 μM. Media was changed daily with fresh addition of drug for 3 days until experiment fixation on day 6.

| Structure (SMILES) | inhibition of P. falciparum liver-stage development (in words) | inhibition at 10 µM (Plasmodium falciparum, Hepatocyte, read-out: inhibition of P. falciparum liver-stage growth) |
| --- | --- | --- |
| C[C@H]1[C@@H](O)O[C@@H]2O[C@@]3(C)CC[C@H]4[C@H](C)CC[C@@H]1[C@@]24OO3 [DHA] | does not inhibit |  |
| CC[C@H](C)[C@@H](C(=O)N/C=C\c1c[nH]c2ccccc12)N(C)C(=O)[C@H]([C@@H](C)CC)N(C)C(=O)[C@H](C)N(C)C(=O)[C@H](C(C)C)N(C)C(=O)[C@@H](Cc1ccccc1)N(C)C(C)=O [friomaramide] (Ac-[dNMeF][NMeV][NMeA][NMeI][NMeI]-X1) | block sporozoite invasion and subsequent liver-stage parasite development |  |
| COc1cc(NC(C)CCCN)c2ncccc2c1 (stereo not drawn) [primaquine] |  | > 90% |
